Legend:
CYP2C9 = biological target: T1, CYP2C9 (Homo sapiens, UniProt P11712); assay: CYP inhibitory test using human liver microsome; format: in vitro ADME; details: model substrate diclofenac, 37° C., 10 min, read-out: CYP2C9 inhibition, IC50
T1 construct: Human liver microsome (20 mg protein/mL, 5 μL, Xenotech LLC, purchased from Lenexa Kans.); tissue Xenotech LLC; host or cells: human liver microsomes
Protocol: Experimental Example 2 CYP Inhibitory Test Using Human Liver Microsome
Human liver microsome (20 mg protein/mL, 5 μL, Xenotech LLC, purchased from Lenexa Kans.) was suspended in 100 mM potassium phosphate buffer (70 μL, pH 7.4), mixed with a solution (0.5 μL) of the Example compound dissolved in DMSO and preincubated at 37° C. for 5 min. NADPH producing system coenzyme solution (β-nicotinamide adenine dinucleotide phosphate: 5.2 mM, D-glucose-6-phosphate: 13.2 mM, magnesium chloride: 13.2 mM, glucose-6-phosphate dehydrogenase: 1.8 U/mL) 25 μL, and a model substrate (CYP3A4: midazolam 1 mM, CYP2D6: bufuralol 1 mM, CYP2C9: diclofenac 2 mM) 0.5 μL dissolved in DMSO were added to start the reaction. After incubation at 37° C. for 10 min., acetonitrile (200 μL) containing an internal standard substance (propranolol 1 μM) was added and the mixture was centrifuged (room temperature, 3000 rpm, 20 min). The amount of the metabolite produced from each model substrate in the supernatant was measured by high performance liquid chromatography/mass spectrometry (LC/MS/MS) and each CYP enzyme activity was determined. The concentration showing 50% inhibition (IC50) was calculated relative to the enzyme activity without addition of Example compound (DMSO 0.5 μL added) as 100%.
As a comparative example, the CYP enzyme activity of the compound described in JP-A-3-135917 was examined by determining the IC50 value in the same manner as above.

human URAT1 = biological target: T2, human URAT1 (Homo sapiens, UniProt Q96S37); assay: Uric acid transport inhibitory test using human URAT1-expressing cells; format: cell-based; details: human URAT1-expressing HEK293 cells, 14C-uric acid 50 μM, uptake 5 min, room temperature; read-out: hURAT1 IC50
T2 construct: Human URAT1 full length cDNA was subcloned to expression vector pcDNA3.1; expressed in transfected cells; host or cells: HEK293 cells (pcDNA3.1, geneticin-selected)
T2 sequence (Q96S37 1-553): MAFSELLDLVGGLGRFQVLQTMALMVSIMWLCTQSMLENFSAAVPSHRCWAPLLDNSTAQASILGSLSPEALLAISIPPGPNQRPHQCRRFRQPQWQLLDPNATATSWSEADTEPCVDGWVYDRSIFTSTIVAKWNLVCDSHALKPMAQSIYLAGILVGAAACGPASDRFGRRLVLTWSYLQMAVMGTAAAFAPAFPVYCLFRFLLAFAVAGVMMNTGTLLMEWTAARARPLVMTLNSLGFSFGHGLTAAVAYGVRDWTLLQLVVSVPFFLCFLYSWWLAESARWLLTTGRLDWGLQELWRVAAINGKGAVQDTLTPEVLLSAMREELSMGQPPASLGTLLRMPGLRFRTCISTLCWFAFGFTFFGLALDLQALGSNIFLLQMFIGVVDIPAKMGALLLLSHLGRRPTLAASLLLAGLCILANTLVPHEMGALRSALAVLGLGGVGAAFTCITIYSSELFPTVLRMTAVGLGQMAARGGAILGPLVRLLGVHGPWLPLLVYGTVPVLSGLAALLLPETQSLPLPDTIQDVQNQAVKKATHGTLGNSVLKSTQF
Outline: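 HEK293 cells stably transfected with full-length human URAT1; mock-transfected HEK293 served as background. Uptake of 14C-uric acid (50 μM final) over 5 min at room temperature in Na-gluconate-substituted HBSS with compound, read by scintillation. IC50 derived from URAT1-specific transport (URAT1 minus mock, DMSO = 100%).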

T1 sequence (P11712 whole entry): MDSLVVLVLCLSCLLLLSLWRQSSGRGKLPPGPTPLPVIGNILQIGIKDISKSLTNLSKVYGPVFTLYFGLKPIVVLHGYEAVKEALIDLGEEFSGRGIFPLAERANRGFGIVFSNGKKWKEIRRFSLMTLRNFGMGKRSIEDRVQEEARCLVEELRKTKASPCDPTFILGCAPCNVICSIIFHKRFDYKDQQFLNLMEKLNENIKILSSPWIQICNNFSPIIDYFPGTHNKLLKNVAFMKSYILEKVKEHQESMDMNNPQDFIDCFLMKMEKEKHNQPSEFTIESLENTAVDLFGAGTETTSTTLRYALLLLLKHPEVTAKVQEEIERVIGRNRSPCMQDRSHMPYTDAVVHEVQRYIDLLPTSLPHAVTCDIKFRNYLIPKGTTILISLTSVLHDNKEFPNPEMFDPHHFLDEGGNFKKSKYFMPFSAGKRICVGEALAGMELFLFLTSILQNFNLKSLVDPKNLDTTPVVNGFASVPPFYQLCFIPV

IC50 (CYP2C9) [µM]	IC50 (human URAT1) [µM]	Compound
> 50	≥ 3	Cc1ccc2c(c1)N(C(=O)/C=C/C(=O)O)CC(c1ccccc1)O2 (stereo not drawn) [Example 65, (E)-4-(6-methyl-2-phenyl-2,3-dihydrobenzo[1,4]oxazin-4-yl)-4-oxo-2-butenoic acid]
> 50	< 0.3	Cc1cc(C)c2c(c1)N(CCC(=O)O)C(=O)[C@H](C(C)C)O2 [Example 73, 3-((S)-2-isopropyl-6,8-dimethyl-3-oxo-2,3-dihydrobenzo[1,4]oxazin-4-yl)propionic acid]
> 50	≥ 3	CC(C)C1CN(C(=O)/C=C/C(=O)O)c2cc(Cl)ccc2O1 (stereo not drawn) [Example 69, (E)-4-(6-chloro-2-isopropyl-2,3-dihydrobenzo[1,4]oxazin-4-yl)-4-oxo-2-butenoic acid]
> 50	< 0.3	CC(C)c1cccc2c1OC(c1ccccc1)C(=O)N2CCC(=O)O (stereo not drawn) [Example 38, 3-(8-isopropyl-3-oxo-2-phenyl-2,3-dihydrobenzo[1,4]oxazin-4-yl)propionic acid]
> 50	0.3 to 3	Cc1ccc2c(c1)N(C(=O)/C=C/C(=O)O)CC(C(C)C)O2 (stereo not drawn) [Example 64, (E)-4-(2-isopropyl-6-methyl-2,3-dihydrobenzo[1,4]oxazin-4-yl)-4-oxo-2-butenoic acid]
> 50	< 0.3	Cc1c(Cl)cc2c(c1Cl)OC(C(C)C)C(=O)N2CCC(=O)O (stereo not drawn) [Example 94, 3-(6,8-dichloro-2-isopropyl-7-methyl-3-oxo-2,3-dihydrobenzo[1,4]oxazin-4-yl)propionic acid]
> 50	< 0.3	CC(C)[C@H]1Oc2c(Cl)cc(Cl)cc2N(CCC(=O)O)C1=O [Example 108, 3-((R)-6,8-dichloro-2-isopropyl-3-oxo-2,3-dihydrobenzo[1,4]oxazin-4-yl)propionic acid]
> 50	0.3 to 3	Cc1cc(Cl)cc2c1O[C@@H](C(C)C)C(=O)N2CCC(=O)O [Example 110, 3-((S)-6-chloro-2-isopropyl-8-methyl-3-oxo-2,3-dihydrobenzo[1,4]oxazin-4-yl)propionic acid]
> 50	< 0.3	CCCC1Oc2c(C)cc(C)cc2N(CCC(=O)O)C1=O (stereo not drawn) [Example 102, 3-(6,8-dimethyl-3-oxo-2-propyl-2,3-dihydrobenzo[1,4]oxazin-4-yl)propionic acid]
> 50	< 0.3	Cc1cc(C)c2c(c1)N(CCC(=O)O)C(=O)[C@@H](CC(C)C)O2 [Example 91, 3-((R)-2-isobutyl-6,8-dimethyl-3-oxo-2,3-dihydrobenzo[1,4]oxazin-4-yl)propionic acid]
> 50	< 0.3	Cc1cc(Cl)cc2c1O[C@H](C(C)C)C(=O)N2CCC(=O)O [Example 107, 3-((R)-6-chloro-2-isopropyl-8-methyl-3-oxo-2,3-dihydrobenzo[1,4]oxazin-4-yl)propionic acid]
> 50	0.3 to 3	CC(C)c1cccc2c1OC(C(C)C)CN2C(=O)/C=C\C(=O)O (stereo not drawn) [Example 37, (Z)-4-(2,8-diisopropyl-2,3-dihydrobenzo[1,4]oxazin-4-yl)-4-oxo-2-butenoic acid]
> 50	0.3 to 3	Cc1cc(Cl)c2c(c1)N(CCC(=O)O)C(=O)[C@H](C(C)C)O2 [Example 109, 3-((S)-8-chloro-2-isopropyl-6-methyl-3-oxo-2,3-dihydrobenzo[1,4]oxazin-4-yl)propionic acid]
> 50	< 0.3	Cc1cc(Cl)c2c(c1)N(CCC(=O)O)C(=O)[C@@H](C(C)C)O2 [Example 106, 3-((R)-8-chloro-2-isopropyl-6-methyl-3-oxo-2,3-dihydrobenzo[1,4]oxazin-4-yl)propionic acid]
> 50	< 0.3	CC[C@H](C)[C@H]1Oc2c(C)cc(C)cc2N(CCC(=O)O)C1=O [Example 105, 3-[(R)-2-((S)-sec-butyl)-6,8-dimethyl-3-oxo-2,3-dihydrobenzo[1,4]oxazin-4-yl]propionic acid]
